In EP0390111B1 (MERRELL DOW PHARMACEUTICALS INC., priority 1989, dated 1990):

Key:
adenosine A-1 receptor = target: T1, adenosine A-1 receptor (Rattus norvegicus, UniProt P25099); assay: biochemical
T1 sequence (P25099 1-326): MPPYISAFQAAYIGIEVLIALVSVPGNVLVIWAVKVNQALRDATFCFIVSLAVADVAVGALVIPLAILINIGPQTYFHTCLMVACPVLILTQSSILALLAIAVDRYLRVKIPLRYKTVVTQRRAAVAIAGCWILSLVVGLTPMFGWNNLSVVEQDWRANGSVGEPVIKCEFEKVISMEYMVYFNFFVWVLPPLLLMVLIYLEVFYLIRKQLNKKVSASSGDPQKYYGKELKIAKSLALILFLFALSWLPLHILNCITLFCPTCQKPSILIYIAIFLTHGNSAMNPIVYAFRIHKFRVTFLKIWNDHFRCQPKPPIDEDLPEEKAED

adenosine A-2 receptors = target: T2, adenosine A-2 receptors (Rattus norvegicus, UniProt P30543); assay: Test for affinity for brain adenosine A-2 receptors ([3H]NECA competition, striatal membranes); type: binding; settings: rat brain striatum membranes, [3H]NECA 94 nM, 25°C, 60 minutes; read-out: A-2 Receptor Ki
T2 construct: from tissue; host or cells: rat brain striatum membranes (young male C-D strain rats, Charles River)
T2 sequence (P30543 whole entry): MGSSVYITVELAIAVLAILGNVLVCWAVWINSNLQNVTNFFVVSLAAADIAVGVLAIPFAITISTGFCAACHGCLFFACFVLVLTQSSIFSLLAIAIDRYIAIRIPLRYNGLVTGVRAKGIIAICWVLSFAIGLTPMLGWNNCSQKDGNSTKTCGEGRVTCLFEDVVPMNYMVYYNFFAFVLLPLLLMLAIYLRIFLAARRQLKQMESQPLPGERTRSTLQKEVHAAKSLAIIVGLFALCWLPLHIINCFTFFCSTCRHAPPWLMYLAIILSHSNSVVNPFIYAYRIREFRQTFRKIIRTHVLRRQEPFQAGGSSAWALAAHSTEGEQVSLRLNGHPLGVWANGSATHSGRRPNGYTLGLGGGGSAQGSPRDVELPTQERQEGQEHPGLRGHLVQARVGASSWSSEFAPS
Procedure: Membranes for ligand binding are isolated from rat brain striatum. The tissue is homogenized in 20 vol. ice-cold 50 mM Tris-HCl buffer (pH 7.7) using a polytron (setting for 6 to 20 seconds). The homogenate is centrifuged at 50,000 x g for 10 minutes at 4°C. The pellet is again homogenized in a polytron in 20 vol. of buffer, and centrifuged as before. The pellet is finally resuspended in 40 vol. of 50 mM Tris-HCl (pH 7.7) per gram of original wet weight of tissue.
Incubations are carried out at 25°C for 60 minutes. Each tube is filtered through GF/B glass fiber filters using a vacuum. The filters are rinsed two times with 5 ml of the ice-cold buffer. […] The filters are counted by liquid scintillation spectrometry.
Specific binding of [3H]NECA is measured as the excess over blank runs in the presence of 100 µM 2-chloroadenosine. Total membrane-bound radioactivity is about 2.5% of that added to the test tubes. […] Specific binding to membranes is about 50% of the total bound.

A-2 receptors = settings: brain slice assay; cited from earlier work
adenosine receptors = settings: in vivo; cited from earlier work

Ki (adenosine A-1 receptor) [µM]	Ki (adenosine A-2 receptors) [µM]	Compound	Ki (A-2 receptors) [µM]	potency in antagonizing the effects of adenosine analogs on heart rate versus blood pressure (adenosine receptors)
1.24	> 6.99	CCCOC1=Nc2c(cnn2-c2ccccc2)C2=N[C@H](Cc3ccccc3)CN12 [Compound 1, (R)-2,7-dihydro-7-phenyl-2-(phenylmethyl)-5-propoxy-3H-imidazo[1,2-c]pyrazolo[4,3-e]pyrimidine]		
2.68	0.508	CCCOC1=Nc2c(cnn2-c2ccccc2)C2=N[C@@H](Cc3ccccc3)CN12 [Compound 2, (S)-2,7-dihydro-7-phenyl-2-(phenylmethyl)-5-propoxy-3H-imidazo[1,2-c]pyrazolo[4,3-e]pyrimidine]		
1.9	25	C1=Nc2c(cnn2-c2ccccc2)C2=N[C@H](Cc3ccccc3)CN12 [Compound 3, (R)-2,7-dihydro-7-phenyl-2-(phenylmethyl)-3H-imidazo[1,2-c]pyrazolo[4,3-e]pyrimidine]		
10	> 199	C1=Nc2c(cnn2-c2ccccc2)C2=N[C@@H](Cc3ccccc3)CN12 [Compound 4, (S)-2,7-dihydro-7-phenyl-2-(phenylmethyl)-3H-imidazo[1,2-c]pyrazolo[4,3-e]pyrimidine]		
44.6	> 199	C1=Nc2c(ncn2-c2ccccc2)C2=N[C@@H](Cc3ccccc3)CN12 [Compound 5, (S)-7,8-dihydro-3-phenyl-8-(phenylmethyl)-3H-diimidazo[1,2-c:4',5'-e]pyrimidine]		
8.4	100	C1=Nc2c(ncn2-c2ccccc2)C2=N[C@H](Cc3ccccc3)CN12 [Compound 6, (R)-7,8-dihydro-3-phenyl-8-(phenylmethyl)-3H-diimidazo[1,2-c:4',5'-e]pyrimidine]		
12.1	14.2	CCCOC1=Nc2c(cnn2-c2ccccc2)C2=N[C@H](C)[C@@H](c3ccccc3)N12 [Compound 7, (2R-trans)-2,7-dihydro-2-methyl-3,7-diphenyl-5-propoxy-3H-imidazo[1,2-c]pyrazolo[4,3-e]pyrimidine]		
199	> 199	C1=Nc2nc[nH]c2C2=N[C@H](Cc3ccccc3)CN12 [Compound 9, (R)-7,8-dihydro-8-(phenylmethyl)-1H-diimidazo[1,2-c:4',5'-e]pyrimidine]		
199	> 199	C1=Nc2nc[nH]c2C2=N[C@@H](Cc3ccccc3)CN12 [Compound 10, (S)-7,8-dihydro-8-(phenylmethyl)-1H-diimidazo[1,2-c:4',5'-e]pyrimidine]		
4.5	10.6	OC[C@H]1O[C@@H](n2cnc3c2N=CN2C[C@H](Cc4ccccc4)N=C32)[C@H](O)[C@@H]1O [Compound 13, (S)-7,8-dihydro-3-(β-D-ribofuranosyl)-8-(phenylmethyl)-3H-diimidazo[1,2-c:4',5'-e]pyrimidine]		
65	46.8	OC[C@H]1O[C@@H](n2cnc3c2N=CN2C[C@@H](Cc4ccccc4)N=C32)[C@H](O)[C@@H]1O [Compound 14, (R)-7,8-dihydro-3-(β-D-ribofuranosyl)-8-(phenylmethyl)-3H-diimidazo[1,2-c:4',5'-e]pyrimidine]		
		CCCn1c(=O)c2[nH]c(-c3ccc(OCC(=O)NCCN)cc3)nc2n(CCC)c1=O [XAC]	0.049 ± 0.017	much more potent in antagonizing the effects of adenosine analogs on heart rate than on blood pressure
		CCCn1c(=O)c2[nH]c(-c3ccc(OCC(=O)O)cc3)nc2n(CCC)c1=O [XCC]	0.034 ± 0.013	
